Legend:
[1] = tested on: wheat; experiment: Test C postemergence; type: in vivo, Triticum aestivum; settings: Postemergence, 125 g ai/ha; 0 to 100 scale (0 no effect, 100 complete control), 10 days
Outline: (§1)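 Greenhouse herbicide screen, 10-day duration. Test chemicals in solvent/surfactant blend were sprayed onto soil at sowing (pre) or onto 2–10 cm seedlings at one to two leaves (post); injury scored visually against controls, 0 no effect to 100 complete control.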

[2] = tested on: wheat; experiment: Test C preemergence; type: in vivo, Triticum aestivum; settings: for Wheat plant response rating: 500 g ai/ha, preemergence, 0 to 100 scale (0 no effect, 100 complete control); for Plant response rating, Wheat: Preemergence, 125 g ai/ha, 0 to 100 scale, 0 no effect, 100 complete control
Outline: as §1

[3] = tested on: ragweed; experiment: Test C preemergence; type: in vivo, Ambrosia artemisiifolia; settings: for Ragweed plant response rating: 500 g ai/ha, preemergence, 0 to 100 scale (0 no effect, 100 complete control); for Plant response rating, Ragweed: Preemergence, 125 g ai/ha, 0 to 100 scale, 0 no effect, 100 complete control
Outline: as §1

[4] = tested on: oat, wild; experiment: Test C postemergence; type: in vivo, Avena fatua; settings: 10 days, 0 to 100 scale (0 no effect, 100 complete control)
Outline: as §1

[5] = tested on: corn; experiment: Test C preemergence; type: in vivo, Zea mays; settings: for Corn plant response rating: 500 g ai/ha, preemergence, 0 to 100 scale (0 no effect, 100 complete control); for Plant response rating, Corn: Preemergence, 125 g ai/ha, 0 to 100 scale, 0 no effect, 100 complete control
Outline: as §1

[6] = tested on: barnyardgrass; experiment: Test C preemergence; type: in vivo, Echinochloa crusgalli; settings: for Barnyardgrass plant response rating: 500 g ai/ha, preemergence, 0 to 100 scale (0 no effect, 100 complete control); for Plant response rating, Barnyardgrass: Preemergence, 125 g ai/ha, 0 to 100 scale, 0 no effect, 100 complete control
Outline: as §1

[7] = tested on: pigweed, palmer; experiment: Test C postemergence; type: in vivo, Amaranthus palmeri; settings: 10 days, 0 to 100 scale (0 no effect, 100 complete control)
Outline: as §1

[8] = tested on: pigweed, palmer; experiment: Test C preemergence; type: in vivo, Amaranthus palmeri; settings: for Pigweed, Palmer plant response rating: 500 g ai/ha, preemergence, 0 to 100 scale (0 no effect, 100 complete control); for Plant response rating, Pigweed, Palmer: Preemergence, 125 g ai/ha, 0 to 100 scale, 0 no effect, 100 complete control
Outline: as §1

[9] = tested on: soybean; experiment: Test C preemergence; type: in vivo, Glycine max; settings: for Soybean plant response rating: 500 g ai/ha, preemergence, 0 to 100 scale (0 no effect, 100 complete control); for Plant response rating, Soybean: Preemergence, 125 g ai/ha, 0 to 100 scale, 0 no effect, 100 complete control
Outline: as §1

[10] = tested on: oat, wild; experiment: Test C preemergence; type: in vivo, Avena fatua; settings: for Oat, Wild plant response rating: 500 g ai/ha, preemergence, 0 to 100 scale (0 no effect, 100 complete control); for Plant response rating, Oat, Wild: Preemergence, 125 g ai/ha, 0 to 100 scale, 0 no effect, 100 complete control
Outline: as §1

[11] = tested on: ryegrass, Italian; experiment: Test C preemergence; type: in vivo, Lolium multiflorum; settings: for Ryegrass, Italian plant response rating: 500 g ai/ha, preemergence, 0 to 100 scale (0 no effect, 100 complete control); for Plant response rating, Ryegrass, Italian: Preemergence, 125 g ai/ha, 0 to 100 scale, 0 no effect, 100 complete control
Outline: as §1

[12] = tested on: green foxtail; experiment: Test C postemergence; type: in vivo, Setaria viridis; settings: 10 days, 0 to 100 scale (0 no effect, 100 complete control)
Outline: as §1

[13] = tested on: barnyardgrass; experiment: Test C postemergence; type: in vivo, Echinochloa crusgalli; settings: 10 days, 0 to 100 scale (0 no effect, 100 complete control)
Outline: as §1

[14] = tested on: blackgrass; experiment: Test C preemergence; type: in vivo, Alopecurus myosuroides; settings: for Blackgrass plant response rating: 500 g ai/ha, preemergence, 0 to 100 scale (0 no effect, 100 complete control); for Plant response rating, Blackgrass: Preemergence, 125 g ai/ha, 0 to 100 scale, 0 no effect, 100 complete control
Outline: as §1

[15] = tested on: rice; experiment: Test D flooded paddy test; type: in vivo, Oryza sativa; settings: 250 g ai/ha, applied to paddy water, visual rating after 13 to 14 days, scale 0 to 100 (0 no effect, 100 complete control)
Outline: (§2)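 Seedlings reached the 2-leaf stage, then pots were flooded to 3 cm over the soil surface. Compound was applied into the water, depth was maintained, and plants stayed in the greenhouse 13 to 14 days before visual scoring (0–100) relative to controls.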

[16] = tested on: barnyardgrass; experiment: Test D flooded paddy test; type: in vivo, Echinochloa crus-galli; settings: 250 g ai/ha, applied to paddy water, visual rating after 13 to 14 days, scale 0 to 100 (0 no effect, 100 complete control)
Outline: as §2

[17] = tested on: soybean; experiment: Test C postemergence; type: in vivo, Glycine max; settings: Postemergence, 125 g ai/ha; 0 to 100 scale (0 no effect, 100 complete control), 10 days
Outline: as §1

[18] = tested on: corn; experiment: Test C postemergence; type: in vivo, Zea mays; settings: 10 days, 0 to 100 scale (0 no effect, 100 complete control)
Outline: as §1

[19] = tested on: kochia; experiment: Test C preemergence; type: in vivo, Bassia scoparia; settings: for Kochia plant response rating: 500 g ai/ha, preemergence, 0 to 100 scale (0 no effect, 100 complete control); for Plant response rating, Kochia: Preemergence, 125 g ai/ha, 0 to 100 scale, 0 no effect, 100 complete control
Outline: as §1

[20] = tested on: sedge, umbrella; experiment: Test D flooded paddy test; type: in vivo, Cyperus difformis; settings: 250 g ai/ha, applied to paddy water, visual rating after 13 to 14 days, scale 0 to 100 (0 no effect, 100 complete control)
Outline: as §2

[21] = tested on: ragweed; experiment: Test C postemergence; type: in vivo, Ambrosia artemisiifolia; settings: Postemergence, 125 g ai/ha; 0 to 100 scale (0 no effect, 100 complete control), 10 days
Outline: as §1

[22] = tested on: blackgrass; experiment: Test C postemergence; type: in vivo, Alopecurus myosuroides; settings: 10 days, 0 to 100 scale (0 no effect, 100 complete control)
Outline: as §1

[23] = tested on: ryegrass, Italian; experiment: Test C postemergence; type: in vivo, Lolium multiflorum; settings: Postemergence, 125 g ai/ha; 0 to 100 scale (0 no effect, 100 complete control), 10 days
Outline: as §1

[24] = tested on: green foxtail; experiment: Test C preemergence; type: in vivo, Setaria viridis; settings: for Foxtail, Green plant response rating: 500 g ai/ha, preemergence, 0 to 100 scale (0 no effect, 100 complete control); for Plant response rating, Foxtail, Green: Preemergence, 125 g ai/ha, 0 to 100 scale, 0 no effect, 100 complete control
Outline: as §1

[25] = tested on: ducksalad; experiment: Test D flooded paddy test; type: in vivo, Heteranthera limosa; settings: 250 g ai/ha, applied to paddy water, visual rating after 13 to 14 days, scale 0 to 100 (0 no effect, 100 complete control)
Outline: as §2

[26] = tested on: kochia; experiment: Test C postemergence; type: in vivo, Bassia scoparia; settings: 10 days, 0 to 100 scale (0 no effect, 100 complete control)
Outline: as §1

[27] = tested on: horseweed; experiment: Test C postemergence; type: in vivo, Erigeron canadensis; settings: 10 days, 0 to 100 scale (0 no effect, 100 complete control)
Outline: as §1

SMILES: Cc1ccc(-n2cnc(C(C)(C)C#N)n2)cc1C(=O)N1C[C@H](C)Oc2c(Cl)cccc21 [Compound 397]
- Plant response rating, Wheat [1]: 20
- Wheat plant response rating [2]: 30
- Plant response rating, Wheat [2]: 10
- Ragweed plant response rating [3]: 80
- Plant response rating, Ragweed [3]: 50
- Plant response rating, Oat, Wild ([4]; 500 g ai/ha, postemergence): 70
- Plant response rating, Oat, Wild ([4]; Postemergence, 125 g ai/ha): 20
- Corn plant response rating [5]: 20
- Plant response rating, Corn [5]: 10
- Barnyardgrass plant response rating [6]: 100
- Plant response rating, Barnyardgrass [6]: 90
- Plant response rating, Pigweed, Palmer ([7]; 500 g ai/ha, postemergence): 100
- Plant response rating, Pigweed, Palmer ([7]; Postemergence, 125 g ai/ha): 100
- Pigweed, Palmer plant response rating [8]: 100
- Plant response rating, Pigweed, Palmer [8]: 100
- Soybean plant response rating [9]: 100
- Plant response rating, Soybean [9]: 70
- Oat, Wild plant response rating [10]: 90
- Plant response rating, Oat, Wild [10]: 60
- Ryegrass, Italian plant response rating [11]: 90
- Plant response rating, Ryegrass, Italian [11]: 80
- Plant response rating, Foxtail, Green ([12]; 500 g ai/ha, postemergence): 90
- Plant response rating, Foxtail, Green ([12]; Postemergence, 125 g ai/ha): 90
- Plant response rating, Barnyardgrass ([13]; 500 g ai/ha, postemergence): 60
- Plant response rating, Barnyardgrass ([13]; Postemergence, 125 g ai/ha): 40
- Blackgrass plant response rating [14]: 90
- Plant response rating, Blackgrass [14]: 70
- Plant response rating, Rice (Flood) [15]: 15
- Plant response rating, Barnyardgrass (Flood) [16]: 50
- Plant response rating, Soybean [17]: 50
- Plant response rating, Corn ([18]; 500 g ai/ha, postemergence): 70
- Plant response rating, Corn ([18]; Postemergence, 125 g ai/ha): 70
- Kochia plant response rating [19]: 100
- Plant response rating, Kochia [19]: 90
- Plant response rating, Sedge, Umbrella (Flood) [20]: 45
- Plant response rating, Ragweed [21]: 100
- Plant response rating, Blackgrass ([22]; 500 g ai/ha, postemergence): 90
- Plant response rating, Blackgrass ([22]; Postemergence, 125 g ai/ha): 80
- Plant response rating, Ryegrass, Italian [23]: 50
- Foxtail, Green plant response rating [24]: 100
- Plant response rating, Foxtail, Green [24]: 100
- Plant response rating, Ducksalad (Flood) [25]: 10
- Plant response rating, Kochia ([26]; 500 g ai/ha, postemergence): 100
- Plant response rating, Kochia ([26]; Postemergence, 125 g ai/ha): 90
- Plant response rating, Horseweed ([27]; 500 g ai/ha, postemergence): 80
- Plant response rating, Horseweed ([27]; Postemergence, 125 g ai/ha): 40

SMILES: Cc1ccc(-n2cnc(C3(C#N)CC3)n2)cc1C(=O)N1C[C@H](C)Oc2c(Cl)cccc21 [Compound 398]
- Plant response rating, Wheat [1]: 20
- Wheat plant response rating [2]: 20
- Plant response rating, Wheat [2]: 0
- Ragweed plant response rating [3]: 30
- Plant response rating, Ragweed [3]: 0
- Plant response rating, Oat, Wild ([4]; 500 g ai/ha, postemergence): 60
- Plant response rating, Oat, Wild ([4]; Postemergence, 125 g ai/ha): 0
- Corn plant response rating [5]: 0
- Plant response rating, Corn [5]: 0
- Barnyardgrass plant response rating [6]: 90
- Plant response rating, Barnyardgrass [6]: 60
- Plant response rating, Pigweed, Palmer ([7]; 500 g ai/ha, postemergence): 100
- Plant response rating, Pigweed, Palmer ([7]; Postemergence, 125 g ai/ha): 90
- Pigweed, Palmer plant response rating [8]: 100
- Plant response rating, Pigweed, Palmer [8]: 100
- Soybean plant response rating [9]: 60
- Plant response rating, Soybean [9]: 40
- Oat, Wild plant response rating [10]: 40
- Plant response rating, Oat, Wild [10]: 0
- Ryegrass, Italian plant response rating [11]: 80
- Plant response rating, Ryegrass, Italian [11]: 40
- Plant response rating, Foxtail, Green ([12]; 500 g ai/ha, postemergence): 90
- Plant response rating, Foxtail, Green ([12]; Postemergence, 125 g ai/ha): 70
- Plant response rating, Barnyardgrass ([13]; 500 g ai/ha, postemergence): 50
- Plant response rating, Barnyardgrass ([13]; Postemergence, 125 g ai/ha): 20
- Blackgrass plant response rating [14]: 40
- Plant response rating, Blackgrass [14]: 30
- Plant response rating, Rice (Flood) [15]: 15
- Plant response rating, Barnyardgrass (Flood) [16]: 25
- Plant response rating, Soybean [17]: 20
- Plant response rating, Corn ([18]; 500 g ai/ha, postemergence): 80
- Plant response rating, Corn ([18]; Postemergence, 125 g ai/ha): 10
- Kochia plant response rating [19]: 100
- Plant response rating, Kochia [19]: 90
- Plant response rating, Sedge, Umbrella (Flood) [20]: 45
- Plant response rating, Ragweed [21]: 70
- Plant response rating, Blackgrass ([22]; 500 g ai/ha, postemergence): 90
- Plant response rating, Blackgrass ([22]; Postemergence, 125 g ai/ha): 70
- Plant response rating, Ryegrass, Italian [23]: 30
- Foxtail, Green plant response rating [24]: 100
- Plant response rating, Foxtail, Green [24]: 100
- Plant response rating, Ducksalad (Flood) [25]: 15
- Plant response rating, Kochia ([26]; 500 g ai/ha, postemergence): 90
- Plant response rating, Kochia ([26]; Postemergence, 125 g ai/ha): 90
- Plant response rating, Horseweed ([27]; 500 g ai/ha, postemergence): 60
- Plant response rating, Horseweed ([27]; Postemergence, 125 g ai/ha): 60

— patent US20260262643A1, “HERBICIDAL BENZOXAZINES” (FMC CORPORATION, priority 2022, published 2026)
